Experimental data published in paper PMC9120017, “Inhibition mechanism of the chloride channel TMEM16A by the pore blocker 1PBC” (Nature Communications, 2022).
Read-outs that look alike come from different tables or passages of the source.

Molecular target: T1, mouse TMEM16A mutant V599A (Mus musculus, UniProt Q8BHY3, V599A)
T1 construct: expressed in transfected cells; host or cells: HEK293T
T1 sequence (Q8BHY3 1-960 V599A): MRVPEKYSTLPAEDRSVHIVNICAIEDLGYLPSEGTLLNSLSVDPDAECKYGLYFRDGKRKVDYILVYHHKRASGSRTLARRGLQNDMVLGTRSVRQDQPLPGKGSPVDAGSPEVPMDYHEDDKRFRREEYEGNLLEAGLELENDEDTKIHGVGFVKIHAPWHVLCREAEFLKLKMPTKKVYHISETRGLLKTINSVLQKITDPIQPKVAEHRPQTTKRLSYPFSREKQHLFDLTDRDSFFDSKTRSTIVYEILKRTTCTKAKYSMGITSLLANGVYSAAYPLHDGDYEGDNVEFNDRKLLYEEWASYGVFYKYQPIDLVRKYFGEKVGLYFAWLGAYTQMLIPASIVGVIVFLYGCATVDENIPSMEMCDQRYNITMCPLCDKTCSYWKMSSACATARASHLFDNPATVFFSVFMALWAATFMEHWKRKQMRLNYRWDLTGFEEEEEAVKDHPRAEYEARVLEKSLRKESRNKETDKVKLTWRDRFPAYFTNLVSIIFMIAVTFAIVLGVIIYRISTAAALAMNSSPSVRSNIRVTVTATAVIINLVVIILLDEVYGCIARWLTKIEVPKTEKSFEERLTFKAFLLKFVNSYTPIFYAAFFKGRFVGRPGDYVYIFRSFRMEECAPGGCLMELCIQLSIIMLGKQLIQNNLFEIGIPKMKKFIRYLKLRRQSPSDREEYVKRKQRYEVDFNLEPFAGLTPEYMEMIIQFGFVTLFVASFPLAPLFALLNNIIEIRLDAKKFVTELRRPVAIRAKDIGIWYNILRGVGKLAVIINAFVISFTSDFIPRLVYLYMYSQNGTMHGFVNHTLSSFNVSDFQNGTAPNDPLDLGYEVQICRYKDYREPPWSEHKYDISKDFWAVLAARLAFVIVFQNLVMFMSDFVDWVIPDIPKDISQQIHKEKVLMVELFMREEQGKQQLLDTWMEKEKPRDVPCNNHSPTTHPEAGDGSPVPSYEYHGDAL
Assay: Inside-out patch recording of 1PBC block, mutant V599A
Assay type: cell-based
Conditions: for remaining activity at 3 µM: 1PBC conc 3; for remaining activity at 3 µM / remaining activity at 10 µM / remaining activity at 30 µM / remaining activity at 100 µM: read-out: relative current in 1PBC (avr); for remaining activity at 10 µM: 1PBC conc 10; for remaining activity at 30 µM: 1PBC conc 30; for remaining activity at 100 µM: 1PBC conc 100
Protocol: HEK293T cells (ATCC CRL-1573) were maintained in Dulbecco’s modified Eagle’s medium (DMEM; Sigma-Aldrich) supplemented with 10 U ml^−1 penicillin, 0.1 mg ml^−1 streptomycin (Sigma-Aldrich), 2 mM L-glutamine (Sigma-Aldrich), and 10% FBS (Sigma-Aldrich) in a humidified atmosphere containing 5% CO2 at 37 °C. HEK293S GnTI^− cells (ATCC CRL-3022) were maintained in HyClone HyCell TransFx-H medium (GE Healthcare) supplemented with 10 U ml^−1 penicillin, 0.1 mg ml^−1 streptomycin, 4 mM L-glutamine, 0.15% poloxamer 188 (Sigma-Aldrich), and 1% FBS in an atmosphere containing 5% CO2 at 185 rpm at 37 °C. The ac splice variant of mouse TMEM16A (UniProt ID: Q8BHY3), mouse TMEM16B (UniProt ID: Q8CFW1), or mouse TMEM16F (UniProt ID: Q6P9J9) bearing a 3C cleavage site, a Venus YFP, a Myc tag, and a Streptavidin-binding peptide (SBP) downstream of the open reading frame in a modified pcDNA3.1 vector (Invitrogen) were used as described previously[21],[31]. Mutations were introduced using a modified QuikChange method[58] and were verified by sequencing.
HEK293T cells were transfected with 3–4 μg DNA per 6 cm Petri dish using the calcium phosphate co-precipitation method and were used within 24–96 h after transfection. Recordings were performed on inside-out patches excised from HEK293T cells expressing the construct of interest. Patch pipettes were pulled from borosilicate glass capillaries (O.D. 1.5 mm, I.D. 0.86 mm, Sutter Instrument) and were fire-polished with a microforge (Narishige) before use. Pipette resistance was typically 3–8 MΩ when filled with the recording solutions detailed below. Seal resistance was typically 4 GΩ or higher. Voltage-clamp recordings were made using Axopatch 200B, Digidata 1550, and Clampex 10.7 (Molecular Devices). Analog signals were filtered with the in-built 4-pole Bessel filter at 10 kHz and were digitized at 20 kHz. Solution exchange was achieved using a gravity-fed system through a theta glass pipette mounted on an ultra-fast piezo-driven stepper (Siskiyou). […] All recordings were performed at 20 °C.
A symmetrical ionic condition was used throughout. Stock solution with Ca^2+-EGTA contained 150 mM NaCl, 5.99 mM Ca(OH)2, 5 mM EGTA, and 10 mM HEPES at pH 7.40. Stock solution with EGTA contained 150 mM NaCl, 5 mM EGTA, and 10 mM HEPES at pH 7.40. Free Ca^2+ concentrations were adjusted by mixing the stock solutions at the required ratios calculated using the WEBMAXC program (http://web.stanford.edu/~cpatton/webmaxcS.htm). Patch pipettes were filled with the stock solution with Ca^2+-EGTA, which has a free Ca^2+ concentration of 1 mM. 1PBC (ChemBridge) stock was reconstituted in anhydrous DMSO (Sigma-Aldrich) at 100 mM and stored at −20 °C. Working solutions with 1PBC were prepared by serial dilution. Unless otherwise stated, experiments were performed at a saturating Ca^2+ concentration as shown in Supplementary Table 1 and the primary data were corrected for current rundown as described previously[21],[25].
Concentration-response relations, obtained from the ratio of the I-V plots before and after the application of the blocker, were fitted to the Hill equation,1 I/Imax=1/1+IC50/[blocker]^h where I/Imax is the normalized current responses, IC50 defines the concentration at which inhibition is at its half-maximum, and h is the Hill coefficient.

- IC50 (-20 mV, 15 µM Ca2+): 79.2 µM
- remaining activity at 3 µM (-20 mV): 93.7%
- remaining activity at 10 µM (-20 mV): 88.9%
- remaining activity at 30 µM (-20 mV): 74.6%
- remaining activity at 100 µM (-20 mV): 42.8%
- IC50 (-40 mV, 15 µM Ca2+): 87.5 µM
- remaining activity at 3 µM (-40 mV): 93.7%
- remaining activity at 10 µM (-40 mV): 89.2%
- remaining activity at 30 µM (-40 mV): 76.8%
- remaining activity at 100 µM (-40 mV): 45.5%
- IC50 (-60 mV, 15 µM Ca2+): 97.2 µM
- remaining activity at 3 µM (-60 mV): 94.2%
- remaining activity at 10 µM (-60 mV): 90.8%
- remaining activity at 30 µM (-60 mV): 77.7%
- remaining activity at 100 µM (-60 mV): 48.6%
- IC50 (-80 mV, 15 µM Ca2+): 104 µM
- remaining activity at 3 µM (-80 mV): 94.9%
- remaining activity at 10 µM (-80 mV): 91.7%
- remaining activity at 30 µM (-80 mV): 78.1%
- remaining activity at 100 µM (-80 mV): 50.8%
- IC50 (-100 mV, 15 µM Ca2+): 109 µM
- remaining activity at 3 µM (-100 mV): 94.9%
- remaining activity at 10 µM (-100 mV): 91.7%
- remaining activity at 30 µM (-100 mV): 78.5%
- remaining activity at 100 µM (-100 mV): 52.3%
- IC50 (-120 mV, 15 µM Ca2+): 115 µM
- remaining activity at 3 µM (-120 mV): 95.9%
- remaining activity at 10 µM (-120 mV): 93.5%
- remaining activity at 30 µM (-120 mV): 79.4%
- remaining activity at 100 µM (-120 mV): 53.3%
- IC50 (-140 mV, 15 µM Ca2+): 119 µM
- remaining activity at 3 µM (-140 mV): 96%
- remaining activity at 10 µM (-140 mV): 93.2%
- remaining activity at 30 µM (-140 mV): 79.3%
- remaining activity at 100 µM (-140 mV): 54.7%
- IC50 (V599A, V 0 mV): 69.5 µM
- IC50 (V599A, V 20 mV): 61.3 µM
- IC50 (V599A, V 40 mV): 55.5 µM
- IC50 (V599A, V 60 mV): 48.9 µM
- IC50 (V599A, V 80 mV): 45.8 µM
- IC50 (V599A, V 100 mV): 45 µM
- IC50 (V599A, V 120 mV): 45.1 µM
- IC50 (V599A, V 140 mV): 48.5 µM
- IC50 (V599A, V -20 mV): 79.2 µM
- IC50 (V599A, V -40 mV): 87.5 µM
- IC50 (V599A, V -60 mV): 97.2 µM
- IC50 (V599A, V -80 mV): 104 µM
- IC50 (V599A, V -100 mV): 109 µM
- IC50 (V599A, V -120 mV): 115 µM
- IC50 (V599A, V -140 mV): 119 µM
Compound: N#Cc1c(C(F)(F)F)cc(O)n2c1nc1ccccc12 [1PBC]
